Results reported in US8778975B2, “Helicobacter pylori eradicating agent having inhibitory activity on gastric acid secretion” (Link Geonomics, Inc., priority 2006, dated 2014).
Values after ≈ are worked out from the molar mass of the structure shown. Like-named read-outs stand apart in the source and are kept apart here.

How the values were obtained:
[1] = test system: Helicobacter pylori bacteria (ATCC 43504); test: Antiulcer action and bacteria eradicating action in Helicobacter pylori-infected Mongolian gerbils; assay type: in vivo; settings: for responders at 30 mg/kg: Helicobacter pylori; for Number of Bacteria (average) (log CFU): gastric mucosa
Method: Mongolian gerbils were experimentally infected with Helicobacter pylori bacteria, and the antiulcer action and the Helicobacter pylori bacteria eradicating action of the compounds of the present invention were tested.
Male Mongolian gerbils (30 to 40 g), five animals in each group, were orally inoculated with Helicobacter pylori bacteria (ATCC 43504) at 1.6×10^7 CFU/0.5 ml/mouse, and bred for one week, and then drug was administered two times a day for two weeks. Thereafter, the […] were bred for three weeks, and then the rats were fasted for 18 hours and subjected to abdominal section, followed by autopsy. The severity of gastric ulcer, the number of Helicobacter pylori bacteria in the gastric mucosa, and the antibody titer were measured.

[2] = test system: Helicobacter pylori standard strain ATCC 43504; test: Antibacterial potency test (MIC), Columbia agar medium, Pharmacological Test Example 1; assay type: cell-based
Method: A test was conducted to see whether there is a difference in the anti-Helicobacter pylori activity depending on the number of carbon atoms of the linear alkyl group for a substituent at the 4-position of the pyridine ring.
For the bacterium Helicobacter pylori, a standard strain ATCC 43504 was used to perform in vitro tests in Columbia agar medium. Each of the specimens was dissolved in a 1% DMSO solution, and the bacteria were cultured at 37° C. and pH 7.0 for 3 days. On the 4th day, the minimum growth inhibitory concentration (MIC, μg/ml) was determined.

[3] = Stability test in acidic hydrochloric acid solution (pH 2), residual ratio by HPLC; assay type: physicochemical; settings: for Residual ratio at pH 2: pH 2 HCl, 37° C.; for Stability in acid (residual ratio at pH = 2: %): Table 8 summary, time not stated
Method: A test for the stability of thioether compounds (hereinafter, referred to SH-form) and sulfoxide compounds (hereinafter, referred to SO-form) at pH 2.0 was carried out. (Method) Each of the specimens produced in Examples 1 to 3 and Reference Examples 6 to 8 (sulfinyl products of Examples 1 to 3) was maintained in a solution adjusted to pH 2 with 0.5 or 1.0 mmol/L HCl (37° C.) for a predetermined time period. Subsequently, the solution was adjusted to pH 8 with triethylamine, and then an HPLC analysis was performed to calculate the residual ratio.

[4] = test system: Helicobacter pylori standard strains ATCC 43504, ATCC 43629, ATCC 43570 and clinically separated strains; test: Anti-Helicobacter pylori activity (MIC), standard and clinically separated strains, Pharmacological Test Example 2; assay type: cell-based
Method: For the bacterium Helicobacter pylori, standard strains ATCC 43504, ATCC 43629 and ATCC 43570 were used to perform in vitro tests in Columbia agar medium. The bacteria were cultured at 37° C. and pH 7.0 for 3 days. On the 4th day, the minimum growth inhibitory concentration (MIC, μg/ml) was determined. Each of the specimens was dissolved in a 1% DMSO solution. Furthermore, amoxicillin and clarithromycin were used as control drugs of antibacterial substance. Further, the compound described in the article of Thomas C. Kuehler (J. Med.

[5] = ATCC43504, Table 8, amount of administration (mg) 30, read-out: HP eradication based on Mongolian gerbil infection model: Eradication rate (%)
[6] = ATCC43504, 72 h, ATCC 43504, 37° C., pH 7.0, 3 days, read-out: MIC
[7] = ATCC43504, Table 8 summary, strain not stated, read-out: Anti-HP activity (MIC: μg/mL)
[8] = 30 mg/kg, two times a day for two weeks
[9] = ATCC43504, 336 h, 30 mg/kg, two times a day for two weeks, read-out: Eradication rate (%)
[10] = Clinically separated strain PT1045482
[11] = Clinically separated strain PT1045483
[12] = Clinically separated strain PT1045484

MIC [2, 6]	MIC [2, 7]	Residual ratio at pH 2 ([3]; 0 min)	Residual ratio at pH 2 ([3]; 30 min)	Residual ratio at pH 2 ([3]; 2 hours)	Stability in acid (residual ratio at pH = 2: %) [3]	SMILES	responders at 30 mg/kg [1, 5]	other results
3 µg/mL (≈ 8.39 µM)	3 µg/mL (≈ 8.39 µM)	100%	0%	0%	0%	CCCCCOc1ccnc(C[S+]([O-])c2nc3ccccc3[nH]2)c1C (racemic) [Reference Example 6, (±)-2-[(4-n-pentyloxy-3-methylpyridin-2-yl)-methylsulfinyl]-1H-benzimidazole]	0%	
3 µg/mL (≈ 8.08 µM)	3 µg/mL (≈ 8.08 µM)	100%	0%	0%	0%	CCCCCCOc1ccnc(C[S+]([O-])c2nc3ccccc3[nH]2)c1C (racemic) [Reference Example 7, (±)-2-[(4-n-hexyloxy-3-methylpyridin-2-yl)-methylsulfinyl]-1H-benzimidazole]	0%	
3 µg/mL (≈ 7.78 µM)	3 µg/mL (≈ 7.78 µM)	100%	0%	0%	0%	CCCCCCCOc1ccnc(C[S+]([O-])c2nc3ccccc3[nH]2)c1C (racemic) [Reference Example 8, (±)-2-[(4-n-heptyloxy-3-methylpyridin-2-yl)-methylsulfinyl]-1H-benzimidazole]	0%	
						Cc1c(OCC(C)C)ccnc1CSc1nc2ccccc2[nH]1 [Comparative Example 1, 2-[(4-isobutoxy-3-methylpyridin-2-yl)methylthio]-1H-benzimidazole]		Antibody titer (average) ([1]; 30 mg/kg): 0.49; Number of Bacteria (average) (log CFU) ([1]; 30 mg/kg): 6.3 log CFU; Number of Ulcers discovered [1, 8]: 5/5; responders at 30 mg/kg [1, 9]: 0%; MIC [4, 10]: 3 µg/mL (≈ 9.16 µM); MIC [4, 11]: 3 µg/mL (≈ 9.16 µM); MIC [4, 12]: 1 µg/mL (≈ 3.05 µM); MIC ([4]; Standard strain ATCC 43504): 3 µg/mL (≈ 9.16 µM); MIC ([4]; Standard strain ATCC 43570): 1 µg/mL (≈ 3.05 µM); MIC ([4]; Standard strain ATCC 43629): 1 µg/mL (≈ 3.05 µM)
						CC(C)COc1ccnc(CSc2nc3ccccc3[nH]2)c1 [Comparative Example 2, 2-[(4-isobutoxy-pyridin-2-yl)methylthio]-1H-benzimidazole]		Antibody titer (average) ([1]; 30 mg/kg): 0.55; Number of Bacteria (average) (log CFU) ([1]; 30 mg/kg): 5.9 log CFU; Number of Ulcers discovered [1, 8]: 5/5; responders at 30 mg/kg [1, 9]: 0%; MIC [4, 10]: 10 µg/mL (≈ 31.9 µM); MIC [4, 11]: 10 µg/mL (≈ 31.9 µM); MIC [4, 12]: 10 µg/mL (≈ 31.9 µM); MIC ([4]; Standard strain ATCC 43504): 10 µg/mL (≈ 31.9 µM); MIC ([4]; Standard strain ATCC 43570): 5 µg/mL (≈ 16 µM); MIC ([4]; Standard strain ATCC 43629): 10 µg/mL (≈ 31.9 µM)
0.3 µg/mL (≈ 0.782 µM)						CCCCCCCCOc1ccnc(CSc2nc3ccccc3[nH]2)c1C [Example 5, 2-[(4-n-octyloxy-3-methylpyridin-2-yl)-methylthio]-1H-benzimidazole]		
	16 µg/mL (≈ 43.3 µM)	100%	0%	0%	0%	Cc1c(OCC(F)(F)F)ccnc1C[S+]([O-])c1nc2ccccc2[nH]1 (stereo not drawn) [LAZ, Lansoprazole]	0%	
3 µg/mL (≈ 10.5 µM)						COc1ccnc(CSc2nc3ccccc3[nH]2)c1C [Reference Example 1, 2-[(4-methoxy-3-methylpyridin-2-yl)-methylthio]-1H-benzimidazole]		
1 µg/mL (≈ 3.34 µM)						CCOc1ccnc(CSc2nc3ccccc3[nH]2)c1C [Reference Example 2, 2-[(4-ethoxy-3-methylpyridin-2-yl)-methylthio]-1H-benzimidazole]		
1 µg/mL (≈ 3.19 µM)						CCCOc1ccnc(CSc2nc3ccccc3[nH]2)c1C [Reference Example 3, 2-[(4-n-propoxy-3-methylpyridin-2-yl)-methylthio]-1H-benzimidazole]		
1 µg/mL (≈ 2.52 µM)						CCCCCCCCCOc1ccnc(CSc2nc3ccccc3[nH]2)c1C [Reference Example 4, 2-[(4-n-nonyloxy-3-methylpyridin-2-yl)-methylthio]-1H-benzimidazole]		
3 µg/mL (≈ 7.29 µM)						CCCCCCCCCCOc1ccnc(CSc2nc3ccccc3[nH]2)c1C [Reference Example 5, 2-[(4-n-decyloxy-3-methylpyridin-2-yl)-methylthio]-1H-benzimidazole]		

SMILES	MIC [2, 6]	MIC [2, 7]	Residual ratio at pH 2 ([3]; 0 min)	Residual ratio at pH 2 ([3]; 30 min)	Residual ratio at pH 2 ([3]; 2 hours)	Stability in acid (residual ratio at pH = 2: %) [3]	responders at 30 mg/kg [1, 5]	other results
CCCCOc1ccnc(CSc2nc3ccccc3[nH]2)c1C [Example 4, 2-[(4-n-butoxy-3-methylpyridin-2-yl)-methylthio]-1H-benzimidazole]	0.3 µg/mL (≈ 0.916 µM)							
